The text below walks through data of article PMC4204886 (Biochemistry, 2014).

The target in data set [1] is T1, class C P99 β-lactamase (Enterobacter cloacae, UniProt P05364). As to conditions: read-out: Km of the substrate; P99 enzyme; 20 mM MOPS pH 7.50, 25 °C; cited from earlier work.
The next data set concerns the target AmpC β-lactamase (Escherichia coli, UniProt P00811). Nature of the data set: AmpC β-lactamase inhibition, steady-state competition with cephalothin. Format: biochemical.
The target of data set [2] is Actinomadura R39 DD-peptidase (Actinomadura sp., UniProt P39045). Nature of the data set: R39 DD-peptidase inhibition in solution. The format is biochemical.
Data set [3] concerns the target class A Staphylococcus aureus PC1 β-lactamase (Staphylococcus aureus, UniProt P00807). Nature of the data set: PC1 β-lactamase inhibition. Format: biochemical.
In data set [4] the target is Streptomyces R61 DD-peptidase (Streptomyces sp., UniProt P15555). Nature of the data set: R61 DD-peptidase inhibition in solution. The format is biochemical.
Data set [5] has as its target class A SHV-1 β-lactamase (Klebsiella pneumoniae, UniProt P0AD64). Nature of the data set: SHV-1 β-lactamase inhibition. Format: biochemical. The note with it: even at 1 mM concentrations.
The next data set concerns the target E. coli PBP4 (Escherichia coli, UniProt P24228). Nature of the data set: Membrane-bound PBP inhibition, Bocillin Fl competition gel. Format: binding. The note with it: gel experiments, E. coli membranes, 1 h preincubation, Bocillin Fl 20 μM.
In a further data set the target is B. subtilis PBP4a (Bacillus subtilis, UniProt P39844). Nature of the data set: PBP4a inhibition in solution. Format: biochemical.
The next data set deals with E. coli PBP2 (Escherichia coli, UniProt P0AD65). Nature of the data set: Membrane-bound PBP inhibition, Bocillin Fl competition gel. The format is binding. The note with it: gel experiments, E. coli membranes, 1 h preincubation, Bocillin Fl 20 μM.
The target in the next data set is E. coli PBP5 (Escherichia coli, UniProt P0AEB2). The description is as above. As to conditions: gel experiments, E. coli membranes, 1 h preincubation, Bocillin Fl 20 μM. Format: binding.
The target of data set [6] is class A TEM-2 β-lactamase (Escherichia coli, UniProt P62593, Q37K). Format: biochemical, E. coli W3310.
The next data set has as its system E. coli PBP1a/1b. Nature of the data set: Membrane-bound PBP inhibition, Bocillin Fl competition gel. The format is binding. As to conditions: gel experiments, E. coli membranes, 1 h preincubation, Bocillin Fl 20 μM.
In another data set the target is TEM-1 β-lactamase (Escherichia coli, UniProt P62593, Q37K). Nature of the data set: TEM-1 β-lactamase inhibition. Format: biochemical. As to conditions: even at 1 mM concentrations.
Data set [7] has as its target T1, class C P99 β-lactamase. Nature of the data set: P99 β-lactamase inhibition, steady-state competition with cephalothin. The format is biochemical.
The target of the next data set is E. coli PBP3 (Escherichia coli, UniProt P0AD68). Nature of the data set: Membrane-bound PBP inhibition, Bocillin Fl competition gel. The note with it: gel experiments, E. coli membranes, 1 h preincubation, Bocillin Fl 20 μM. The format is binding.
The subject of data set [8] is CC(=O)OCC1=C(C(=O)O)N2C(=O)[C@@H](NC(=O)Cc3cccs3)[C@H]2SC1. Nature of the data set: AmpC β-lactamase inhibition, steady-state competition with cephalothin. The note with it: pH 7.5; 25.0 °C. Format: biochemical.
The test system of data set [9] is Pseudomonas class C β-lactamase. As to conditions: cited from earlier work.
For a further data set, the system named is class A BCI β-lactamase. As to conditions: cited from earlier work.

On to `CC(=O)OCC1=C(C(=O)O)N2C(=O)[C@@H](NC(=O)Cc3cccs3)[C@H]2SC1` [cephalothin], for which, on class C P99 β-lactamase [1], the Km is 9 µM.
On to `CC1(C)SC(C(NC(=O)Cc2ccccc2)B(O)O)NC1C(=O)O` (centres unmarked) [compound 12, 2-[1-(dihydroxyboranyl)(2-phenylacetamido)methyl]-5,5-dimethyl-1,3-thiazolidine-4-carboxylic acid], for which the Ki on AmpC β-lactamase is 1300 ± 400 nM; in data set [2] (R39 DD-peptidase, NI = no inhibition at 0.10 mM), “NI ^c”; in [3] (PCI β-lactamase, NI = no inhibition at 1.0 mM), “NI ^b”; in [6] (TEM-2 β-lactamase, NI = no inhibition at 1.0 mM) it was “NI ^b”; on class C P99 β-lactamase [7], 950 ± 110 nM. Also, the “inhibition of Actinomadura R39 DD-peptidase” value in data set [2] (in solution) is given as “no inhibition”. Besides, the “inhibition of PCI β-lactamase” value in [3] (even at 1 mM concentrations) is “Neither the TEM-1, SHV-1, nor PCI β-lactamases were inhibited”. For the same compound, in data set [4], the “inhibition of Streptomyces R61 DD-peptidase” value is “no inhibition”. The “inhibition of SHV-1 β-lactamase” value in data set [5] is recorded as “Neither the TEM-1, SHV-1, nor PCI β-lactamases were inhibited”. At E. coli PBP4, the “inhibition of E. coli PBP4” value is on record as “did not inhibit”. Also, the “inhibition of B. subtilis PBP4a” value on B. subtilis PBP4a was “no inhibition”. Further, the “inhibition of E. coli PBP2” value at E. coli PBP2 is on record as “did not inhibit”. Moreover, the “inhibition of E. coli PBP5” value at E. coli PBP5 is reported as “did not inhibit”. The “inhibition of TEM-2 enzyme over time” value in [6] (in 24 h) is given as “no inhibition”. In the data set with E. coli PBP1a/1b, the “inhibition of E. coli PBP1a/1b” value was “did not inhibit”. Besides, the “inhibition of TEM-1 β-lactamase” value on TEM-1 β-lactamase was “Neither the TEM-1, SHV-1, nor PCI β-lactamases were inhibited”. At E. coli PBP3, the “inhibition of E. coli PBP3” value was “did not inhibit”.
In the case of “AmpC β-lactamase (Escherichia coli K-12)”, in [8], the Km is 13.8 µM.
Consider “Methyl penicilloate [compound 28, reference compound]”, for which the substrate activity entry in [9] is on record as “substrate”; at class C P99 β-lactamase [7] (P99 β-lactamase, see Supporting Information), “substrate”. In addition, the “substrate / covalent inhibitor activity” value (in data set [6]; in the data set on class A BCI β-lactamase) was “neither a substrate nor a covalent inhibitor” each time.
